# Measured values published in patent publication US10765114B2, “4-amino-6-(pyridyl and 2-substitutedphenyl)-picolinates and 6-amino-2-(pyridyl and 2-substitutedphenyl)-pyrimidine-4-carboxylates and their use as herbicides” (Dow AgroSciences LLC, priority 2013, dated 2020).
# Tested on: Key Broadleaf Weed and Crop Species
# Experiment: Post-Emergent Test II (Table 5)
# Format: in vivo
# Details: Abutilon theophrasti, post-emergence, 336 h, ABUTH: velvetleaf (Abutilon theophrasti), application rate 70 (kg ai/ha; footnote: g ai/ha), read-out: Visual Growth Reduction (%) 14 Days After Application ABUTH
# In short: (§1)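 Visual injury ratings (0 = no injury, 100 = complete kill) were taken 14 days after treatment relative to untreated plants. Seedlings at the first or second true leaf stage received an overhead spray at 187 L/ha, and solvent-blank sprayed plants served as controls.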
row,Compound,pest or weed control at 70 g/ha [%]
1,COC(=O)c1nc(-c2ccc(Cl)c(F)c2OC)cc(N)c1Cl [Compound 20],95 to 100

# Same assay, conditions: Abutilon theophrasti, post-emergence, 336 h, ABUTH: velvetleaf (Abutilon theophrasti), application rate 140 (kg ai/ha; footnote: g ai/ha), read-out: Visual Growth Reduction (%) 14 Days After Application ABUTH
row,Compound,pest or weed control at 140 g/ha [%]
1,COC(=O)c1nc(-c2ccc(Cl)c(F)c2OC)cc(N)c1Cl [Compound 20],95 to 100

# Same assay, conditions: Amaranthus retroflexus, post-emergence, 336 h, AMARE: redroot pigweed (Amaranthus retroflexus), application rate 70 (kg ai/ha; footnote: g ai/ha), read-out: Visual Growth Reduction (%) 14 Days After Application AMARE
row,Compound,pest or weed control at 70 g/ha [%]
1,COC(=O)c1nc(-c2ccc(Cl)c(F)c2OC)cc(N)c1Cl [Compound 20],95 to 100

# Same assay, conditions: Amaranthus retroflexus, post-emergence, 336 h, AMARE: redroot pigweed (Amaranthus retroflexus), application rate 140 (kg ai/ha; footnote: g ai/ha), read-out: Visual Growth Reduction (%) 14 Days After Application AMARE
row,Compound,pest or weed control at 140 g/ha [%]
1,COC(=O)c1nc(-c2ccc(Cl)c(F)c2OC)cc(N)c1Cl [Compound 20],95 to 100

# Same assay, conditions: Brassica napus, post-emergence, 336 h, BRSSS: oilseed rape, canola (Brassica napus), application rate 70 (kg ai/ha; footnote: g ai/ha), read-out: Visual Growth Reduction (%) 14 Days After Application BRSSS
row,Compound,pest or weed control at 70 g/ha [%]
1,COC(=O)c1nc(-c2ccc(Cl)c(F)c2OC)cc(N)c1Cl [Compound 20],95 to 100

# Same assay, conditions: Brassica napus, post-emergence, 336 h, BRSSS: oilseed rape, canola (Brassica napus), application rate 140 (kg ai/ha; footnote: g ai/ha), read-out: Visual Growth Reduction (%) 14 Days After Application BRSSS
row,Compound,pest or weed control at 140 g/ha [%]
1,COC(=O)c1nc(-c2ccc(Cl)c(F)c2OC)cc(N)c1Cl [Compound 20],95 to 100

# Same assay, conditions: Chenopodium album, post-emergence, 336 h, CHEAL: lambsquarters (Chenopodium album), application rate 70 (kg ai/ha; footnote: g ai/ha), read-out: Visual Growth Reduction (%) 14 Days After Application CHEAL
row,Compound,pest or weed control at 70 g/ha [%]
1,COC(=O)c1nc(-c2ccc(Cl)c(F)c2OC)cc(N)c1Cl [Compound 20],95 to 100

# Same assay, conditions: Chenopodium album, post-emergence, 336 h, CHEAL: lambsquarters (Chenopodium album), application rate 140 (kg ai/ha; footnote: g ai/ha), read-out: Visual Growth Reduction (%) 14 Days After Application CHEAL
row,Compound,pest or weed control at 140 g/ha [%]
1,COC(=O)c1nc(-c2ccc(Cl)c(F)c2OC)cc(N)c1Cl [Compound 20],95 to 100

# Same assay, conditions: Euphorbia heterophylla, post-emergence, 336 h, EPHHL: wild poinsettia (Euphorbia heterophylla), application rate 70 (kg ai/ha; footnote: g ai/ha), read-out: Visual Growth Reduction (%) 14 Days After Application EPHHL
row,Compound,pest or weed control at 70 g/ha [%]
1,COC(=O)c1nc(-c2ccc(Cl)c(F)c2OC)cc(N)c1Cl [Compound 20],0 to 29

# Same assay, conditions: Euphorbia heterophylla, post-emergence, 336 h, EPHHL: wild poinsettia (Euphorbia heterophylla), application rate 140 (kg ai/ha; footnote: g ai/ha), read-out: Visual Growth Reduction (%) 14 Days After Application EPHHL
row,Compound,pest or weed control at 140 g/ha [%]
1,COC(=O)c1nc(-c2ccc(Cl)c(F)c2OC)cc(N)c1Cl [Compound 20],0 to 29

# Same assay, conditions: Helianthus annuus, post-emergence, 336 h, HELAN: sunflower (Helianthus annuus), application rate 70 (kg ai/ha; footnote: g ai/ha), read-out: Visual Growth Reduction (%) 14 Days After Application HELAN
row,Compound,pest or weed control at 70 g/ha [%]
1,COC(=O)c1nc(-c2ccc(Cl)c(F)c2OC)cc(N)c1Cl [Compound 20],85 to 94

# Same assay, conditions: Helianthus annuus, post-emergence, 336 h, HELAN: sunflower (Helianthus annuus), application rate 140 (kg ai/ha; footnote: g ai/ha), read-out: Visual Growth Reduction (%) 14 Days After Application HELAN
row,Compound,pest or weed control at 140 g/ha [%]
1,COC(=O)c1nc(-c2ccc(Cl)c(F)c2OC)cc(N)c1Cl [Compound 20],95 to 100

# Same assay, conditions: Viola tricolor, post-emergence, 336 h, VIOTR: wild pansy (Viola tricolor), application rate 70 (kg ai/ha; footnote: g ai/ha), read-out: Visual Growth Reduction (%) 14 Days After Application VIOTR
row,Compound,pest or weed control at 70 g/ha [%]
1,COC(=O)c1nc(-c2ccc(Cl)c(F)c2OC)cc(N)c1Cl [Compound 20],95 to 100

# Same assay, conditions: Viola tricolor, post-emergence, 336 h, VIOTR: wild pansy (Viola tricolor), application rate 140 (kg ai/ha; footnote: g ai/ha), read-out: Visual Growth Reduction (%) 14 Days After Application VIOTR
row,Compound,pest or weed control at 140 g/ha [%]
1,COC(=O)c1nc(-c2ccc(Cl)c(F)c2OC)cc(N)c1Cl [Compound 20],95 to 100

# Tested on: Key Grass and Sedge Weeds as well as Grass Crops
# Experiment: Post-Emergent Test II (Table 6)
# Format: in vivo
# Details: post-emergence, 336 h, CYPSS, 70 g ai/ha, 14 days after application, read-out: Visual Growth Reduction (%) 14 Days After Application CYPSS
# In short: as §1
row,Compound,pest or weed control at 70 g/ha [%]
1,COC(=O)c1nc(-c2ccc(Cl)c(F)c2OC)cc(N)c1Cl [Compound 20],30 to 44

# Same assay, conditions: post-emergence, 336 h, CYPSS, 140 g ai/ha, 14 days after application, read-out: Visual Growth Reduction (%) 14 Days After Application CYPSS
row,Compound,pest or weed control at 140 g/ha [%]
1,COC(=O)c1nc(-c2ccc(Cl)c(F)c2OC)cc(N)c1Cl [Compound 20],45 to 59

# Same assay, conditions: post-emergence, 336 h, DIGSA: crabgrass (Digitaria sanguinalis), 70 g ai/ha, 14 days after application, read-out: Visual Growth Reduction (%) 14 Days After Application DIGSA
row,Compound,pest or weed control at 70 g/ha [%]
1,COC(=O)c1nc(-c2ccc(Cl)c(F)c2OC)cc(N)c1Cl [Compound 20],0 to 29

# Same assay, conditions: post-emergence, 336 h, DIGSA: crabgrass (Digitaria sanguinalis), 140 g ai/ha, 14 days after application, read-out: Visual Growth Reduction (%) 14 Days After Application DIGSA
row,Compound,pest or weed control at 140 g/ha [%]
1,COC(=O)c1nc(-c2ccc(Cl)c(F)c2OC)cc(N)c1Cl [Compound 20],45 to 59

# Same assay, conditions: post-emergence, 336 h, ECHSS, 70 g ai/ha, 14 days after application, read-out: Visual Growth Reduction (%) 14 Days After Application ECHSS
row,Compound,pest or weed control at 70 g/ha [%]
1,COC(=O)c1nc(-c2ccc(Cl)c(F)c2OC)cc(N)c1Cl [Compound 20],60 to 74

# Same assay, conditions: post-emergence, 336 h, ECHSS, 140 g ai/ha, 14 days after application, read-out: Visual Growth Reduction (%) 14 Days After Application ECHSS
row,Compound,pest or weed control at 140 g/ha [%]
1,COC(=O)c1nc(-c2ccc(Cl)c(F)c2OC)cc(N)c1Cl [Compound 20],75 to 84

# Same assay, conditions: post-emergence, 336 h, ORYSS (crop), 70 g ai/ha, 14 days after application, read-out: Visual Growth Reduction (%) 14 Days After Application ORYSS
row,Compound,pest or weed control at 70 g/ha [%]
1,COC(=O)c1nc(-c2ccc(Cl)c(F)c2OC)cc(N)c1Cl [Compound 20],0 to 29

# Same assay, conditions: post-emergence, 336 h, ORYSS (crop), 140 g ai/ha, 14 days after application, read-out: Visual Growth Reduction (%) 14 Days After Application ORYSS
row,Compound,pest or weed control at 140 g/ha [%]
1,COC(=O)c1nc(-c2ccc(Cl)c(F)c2OC)cc(N)c1Cl [Compound 20],0 to 29

# Same assay, conditions: post-emergence, 336 h, SETFA: giant foxtail (Setaria faberi), 70 g ai/ha, 14 days after application, read-out: Visual Growth Reduction (%) 14 Days After Application SETFA
row,Compound,pest or weed control at 70 g/ha [%]
1,COC(=O)c1nc(-c2ccc(Cl)c(F)c2OC)cc(N)c1Cl [Compound 20],30 to 44

# Same assay, conditions: post-emergence, 336 h, SETFA: giant foxtail (Setaria faberi), 140 g ai/ha, 14 days after application, read-out: Visual Growth Reduction (%) 14 Days After Application SETFA
row,Compound,pest or weed control at 140 g/ha [%]
1,COC(=O)c1nc(-c2ccc(Cl)c(F)c2OC)cc(N)c1Cl [Compound 20],60 to 74

# Same assay, conditions: post-emergence, 336 h, SORVU: grain sorghum (Sorghum vulgare), 70 g ai/ha, 14 days after application, read-out: Visual Growth Reduction (%) 14 Days After Application SORVU
row,Compound,pest or weed control at 70 g/ha [%]
1,COC(=O)c1nc(-c2ccc(Cl)c(F)c2OC)cc(N)c1Cl [Compound 20],0 to 29

# Same assay, conditions: post-emergence, 336 h, SORVU: grain sorghum (Sorghum vulgare), 140 g ai/ha, 14 days after application, read-out: Visual Growth Reduction (%) 14 Days After Application SORVU
row,Compound,pest or weed control at 140 g/ha [%]
1,COC(=O)c1nc(-c2ccc(Cl)c(F)c2OC)cc(N)c1Cl [Compound 20],30 to 44

# Same assay, conditions: post-emergence, 336 h, TRZSS (crop), 70 g ai/ha, 14 days after application, read-out: Visual Growth Reduction (%) 14 Days After Application TRZSS
row,Compound,pest or weed control at 70 g/ha [%]
1,COC(=O)c1nc(-c2ccc(Cl)c(F)c2OC)cc(N)c1Cl [Compound 20],0 to 29

# Same assay, conditions: post-emergence, 336 h, TRZSS (crop), 140 g ai/ha, 14 days after application, read-out: Visual Growth Reduction (%) 14 Days After Application TRZSS
row,Compound,pest or weed control at 140 g/ha [%]
1,COC(=O)c1nc(-c2ccc(Cl)c(F)c2OC)cc(N)c1Cl [Compound 20],30 to 44

# Same assay, conditions: post-emergence, 336 h, ZEAMX: maize, corn (Zea mays), 70 g ai/ha, 14 days after application, read-out: Visual Growth Reduction (%) 14 Days After Application ZEAMX
row,Compound,pest or weed control at 70 g/ha [%]
1,COC(=O)c1nc(-c2ccc(Cl)c(F)c2OC)cc(N)c1Cl [Compound 20],85 to 94

# Same assay, conditions: post-emergence, 336 h, ZEAMX: maize, corn (Zea mays), 140 g ai/ha, 14 days after application, read-out: Visual Growth Reduction (%) 14 Days After Application ZEAMX
row,Compound,pest or weed control at 140 g/ha [%]
1,COC(=O)c1nc(-c2ccc(Cl)c(F)c2OC)cc(N)c1Cl [Compound 20],85 to 94
